Data on twelve molecules can be found in ChEMBL document CHEMBL1201862, “PubChem BioAssay data set” (2004).

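Briefly, cells in 96-well plates were exposed to five compound concentrations for 48 h, and endpoints were estimated by linear interpolation. At the GI50, growth is halved.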 Activity calls are given as the source filed them. No stated cut-off is given here; in the data, active = GI50 up to about 1.1 µM and inactive = higher.

Some test systems named below: Hs-578T; K562; IGROV-1; SF-268; Malme-3M; NCI-H522; OVCAR-5; SK-MEL-2; HCC 2998; KM12; MDA-MB-435; SNB-19; SK-OV-3; PC-3; A498; SK-MEL-5.
Holding throughout (experiment): NCI-60 cell line screen, 48 h

Consider `NS(=O)(=O)c1ccc(NC(=O)Nc2cccc3ccccc23)cc1`, for which the GI50 with Hs-578T was 42.2 µM (inactive); with K562, > 100 µM (inactive); with IGROV-1, 53.6 µM (inactive); with SF-268, 19.9 µM (inactive); in the experiment on Malme-3M, 35.7 µM (inactive); with NCI-H522 it was 19.4 µM (inactive). Moreover, the GI50 is > 100 µM (inactive) in the experiment with OVCAR-5; > 100 µM (inactive) in the experiment with SK-MEL-2; 27.6 µM (inactive) in the experiment with HCC 2998; > 100 µM (inactive) in the experiment with KM12; 81.8 µM (inactive) in the experiment with MDA-MB-435; 21.1 µM (inactive) with SNB-19. Moreover, the GI50 was 42.8 µM (inactive) in the experiment on SK-OV-3, 20.2 µM (inactive) in the experiment with PC-3, 22.5 µM (inactive) in the experiment with A498 and > 100 µM (inactive) in the experiment with SK-MEL-5.

Consider `C=C1[C@H](OCC(C)C)[C@@H](OC(=O)C(C)CC)[C@@H](O)C(C)(C)/C=C/[C@H](C)C(=O)[C@@]2(O)C[C@H](C)[C@H](O)[C@@H]2[C@H]1OC(=O)C(C)CC` (stereo not given in full), for which the GI50 with Hs-578T is 1.66 µM (inactive); with K562 it was 0.991 µM (active); with IGROV-1 it was 7.98 µM (inactive); in the experiment with SF-268 it was 4.78 µM (inactive); in the experiment with Malme-3M it was 6.62 µM (inactive); in the experiment with NCI-H522, 8.63 µM (inactive). Further, the GI50 in the experiment with OVCAR-5 was 6.37 µM (inactive); with SK-MEL-2, 4.99 µM (inactive); in the experiment with HCC 2998, 2.84 µM (inactive); in the experiment with KM12, 5.41 µM (inactive); in the experiment on MDA-MB-435 it was 1.7 µM (inactive); with SNB-19, 14.5 µM (inactive). Besides, the GI50 is 19.7 µM (inactive) in the experiment on SK-OV-3, 2.82 µM (inactive) in the experiment with PC-3, 3.28 µM (inactive) in the experiment with A498 and 2.23 µM (inactive) with SK-MEL-5.

In the case of `O=C(Oc1ccc(OC(Oc2ccccc2)c2ccccc2)cc1)c1ccccc1` (stereo not given), the GI50 is > 31.6 µM (inactive) with Hs-578T; > 31.6 µM (inactive) in the experiment with K562; 15.2 µM (inactive) with IGROV-1; 13 µM (inactive) with SF-268; 13.2 µM (inactive) in the experiment with Malme-3M; 49.2 µM (inactive) in the experiment with NCI-H522. Further, the GI50 with OVCAR-5 is > 74.1 µM (inactive); in the experiment on SK-MEL-2 it was 17.3 µM (inactive); in the experiment with HCC 2998, 17.6 µM (inactive); in the experiment with KM12, 18.7 µM (inactive); in the experiment with MDA-MB-435, 24.6 µM (inactive); in the experiment with SNB-19, > 31.6 µM (inactive). Also, the GI50 in the experiment with SK-OV-3 is 27.2 µM (inactive); in the experiment on PC-3 it was 25.6 µM (inactive); in the experiment on A498 it was 18.6 µM (inactive); in the experiment on SK-MEL-5, 22.1 µM (inactive).

Take `N[C@H]1CCCC[C@@H]1N1C(=O)c2ccccc2C1(O)c1ccc(Cl)cc1` (stereo not given in full): the GI50 in the experiment with Hs-578T is 17 µM (inactive); in the experiment with K562, 3.19 µM (inactive); with IGROV-1 it was 12.6 µM (inactive); in the experiment with SF-268, 12.4 µM (inactive); in the experiment on Malme-3M, 14 µM (inactive); in the experiment on NCI-H522, 13.8 µM (inactive). In addition, the GI50 was 15.1 µM (inactive) in the experiment with OVCAR-5; 15 µM (inactive) in the experiment with SK-MEL-2; 1.86 µM (inactive) with HCC 2998; 2.11 µM (inactive) with KM12; 6.5 µM (inactive) in the experiment with MDA-MB-435; 14 µM (inactive) in the experiment with SNB-19. Also, the GI50 in the experiment with SK-OV-3 is 15.7 µM (inactive); in the experiment with PC-3 it was 11.4 µM (inactive); in the experiment with A498, 13.7 µM (inactive); with SK-MEL-5 it was 10.5 µM (inactive).

In the case of `O=C1C(Cl)=C(N[C@@H](Cc2ccccc2)C(=O)OCc2ccccc2)C(=O)c2c(O)ccc(O)c21`, the GI50 is 4.89 µM (inactive) in the experiment with Hs-578T; 4.08 µM (inactive) in the experiment with IGROV-1; 2.91 µM (inactive) with SF-268; 5.35 µM (inactive) in the experiment with Malme-3M; 6.41 µM (inactive) in the experiment with NCI-H522; 6.18 µM (inactive) in the experiment with OVCAR-5. Moreover, the GI50 in the experiment with SK-MEL-2 was 6.7 µM (inactive); in the experiment with HCC 2998, > 10 µM (inactive); in the experiment on KM12, 4.45 µM (inactive); in the experiment on MDA-MB-435, 3.17 µM (inactive); with SNB-19 it was 5.81 µM (inactive); in the experiment on SK-OV-3 it was > 10 µM (inactive). Moreover, the GI50 was 3.72 µM (inactive) in the experiment with PC-3, 7.33 µM (inactive) in the experiment with A498 and 3.24 µM (inactive) in the experiment on SK-MEL-5.

For `C=CCC1(OCc2ccccc2)C(=O)C(=O)OC1C1COC(C)(C)O1` (stereo not given), the GI50 in the experiment with Hs-578T, in the experiment with K562, in the experiment with SF-268, with Malme-3M, with NCI-H522 and in the experiment on OVCAR-5 was > 100 µM (inactive) throughout. In addition, the GI50 with SK-MEL-2, in the experiment with HCC 2998, with KM12, in the experiment on MDA-MB-435, in the experiment with SNB-19 and with SK-OV-3 was > 100 µM (inactive) each time. Besides, the GI50 with PC-3, with A498 and in the experiment on SK-MEL-5 was > 100 µM (inactive) in each case.

Turning to `COC(=O)c1sc2c(=O)c(C(=O)OC)c(C(=O)OC)sc2c(=O)c1C(=O)OC`, the GI50 with Hs-578T was > 64.1 µM (inactive); in the experiment on K562 it was 43.2 µM (inactive); with IGROV-1, > 67.8 µM (inactive); with SF-268 it was > 62.7 µM (inactive); with Malme-3M it was 49 µM (inactive); with NCI-H522, 21.5 µM (inactive). The GI50 in the experiment with OVCAR-5 was > 100 µM (inactive); with SK-MEL-2, > 85.9 µM (inactive); with HCC 2998 it was > 100 µM (inactive); with KM12 it was > 100 µM (inactive); in the experiment with MDA-MB-435 it was > 100 µM (inactive); in the experiment on SNB-19 it was > 100 µM (inactive). Further, the GI50 with SK-OV-3 is > 100 µM (inactive); in the experiment with PC-3, > 100 µM (inactive); in the experiment on A498 it was > 100 µM (inactive); in the experiment with SK-MEL-5, > 76 µM (inactive).

As for `O=C(NCc1cccnc1)NCc1cccnc1`, the GI50 in the experiment on Hs-578T, in the experiment with K562, with IGROV-1, with SF-268, in the experiment with Malme-3M and with NCI-H522 was > 100 µM (inactive) in each case. Further, the GI50 with OVCAR-5, in the experiment on SK-MEL-2, in the experiment on HCC 2998, in the experiment on KM12, in the experiment on MDA-MB-435 and with SNB-19 was > 100 µM (inactive) throughout. Moreover, the GI50 in the experiment with SK-OV-3, in the experiment with PC-3, with A498 and in the experiment on SK-MEL-5 was > 100 µM (inactive) each time.

Regarding `COc1ccc(C(CC(C)=O)c2c(O)c3ccccc3oc2=O)cc1OC` (stereo not given), the GI50 with Hs-578T, with K562, with IGROV-1, in the experiment with SF-268, in the experiment on Malme-3M and in the experiment with NCI-H522 was > 100 µM (inactive) each time. Besides, the GI50 in the experiment with OVCAR-5, in the experiment with SK-MEL-2, in the experiment with HCC 2998, in the experiment on KM12, in the experiment on MDA-MB-435 and in the experiment on SNB-19 was > 100 µM (inactive) throughout. The GI50 with SK-OV-3, in the experiment with PC-3, in the experiment with A498 and in the experiment with SK-MEL-5 was > 100 µM (inactive) each time.

As to `CCOC(=O)c1sc2ncnc(N)c2c1C`, the GI50 with Hs-578T is 44.1 µM (inactive); in the experiment on K562 it was > 100 µM (inactive); in the experiment with IGROV-1 it was 22.1 µM (inactive); in the experiment on SF-268 it was 68.5 µM (inactive); in the experiment with Malme-3M it was 82.8 µM (inactive); in the experiment on NCI-H522, 59.3 µM (inactive). Also, the GI50 in the experiment on OVCAR-5 is 36.3 µM (inactive); with SK-MEL-2 it was > 100 µM (inactive); in the experiment with HCC 2998, 40.1 µM (inactive); with KM12 it was 47.1 µM (inactive); with MDA-MB-435, 36 µM (inactive); in the experiment on SNB-19, 63.7 µM (inactive). Moreover, the GI50 is > 100 µM (inactive) in the experiment with SK-OV-3, 68.5 µM (inactive) with PC-3, 24.4 µM (inactive) with A498 and 36.8 µM (inactive) in the experiment on SK-MEL-5.

Take `N#Cc1c(Cl)nc2ccccc2c1N=[N+]=[N-]`: the GI50 in the experiment on Hs-578T is 5.81 µM (inactive); in the experiment with K562 it was 0.705 µM (active); in the experiment with IGROV-1, 1.95 µM (inactive); in the experiment on SF-268, 3.24 µM (inactive); in the experiment with Malme-3M it was 2.18 µM (inactive); with NCI-H522, 1.99 µM (inactive). In addition, the GI50 in the experiment with OVCAR-5 was 6.61 µM (inactive); in the experiment on SK-MEL-2 it was 1.91 µM (inactive); in the experiment on HCC 2998, 6.12 µM (inactive); in the experiment with KM12, 6.4 µM (inactive); in the experiment on MDA-MB-435 it was 7.38 µM (inactive); with SNB-19, 14.8 µM (inactive). Further, the GI50 was 15.5 µM (inactive) in the experiment on SK-OV-3, 2.65 µM (inactive) in the experiment with PC-3, 21.7 µM (inactive) in the experiment on A498 and 14.2 µM (inactive) in the experiment with SK-MEL-5.

On to `CCCCCC1=C/C(=C\c2[nH]c(-c3ccc[nH]3)cc2OC)N=C1C`, for which the GI50 with Hs-578T is < 0.01 µM (active); in the experiment on K562, < 0.01 µM (active); with IGROV-1, 0.017 µM (active); with SF-268, < 0.01 µM (active); in the experiment with Malme-3M it was 0.0448 µM (active); in the experiment on NCI-H522, < 0.01 µM (active). The GI50 in the experiment with OVCAR-5 was 0.0179 µM (active); in the experiment with SK-MEL-2, < 0.01 µM (active); with HCC 2998 it was 0.0113 µM (active); with KM12 it was < 0.01 µM (active); in the experiment on MDA-MB-435, < 0.01 µM (active); with SNB-19 it was 0.0562 µM (active). The GI50 in the experiment on SK-OV-3 was 0.25 µM (active); in the experiment with PC-3, < 0.01 µM (active); in the experiment with A498, 0.0989 µM (active); in the experiment on SK-MEL-5 it was 0.0316 µM (active).
